Values joined by “and” are separate entries in the source; they are usually repeats but may differ in a detail not shown here. Equal values may be shown once.
Test system: 883617-216-R-J1-PDC complex spheroids, growth, % test/control
Experiment: Anticancer human tumor 883617-216-R-J1-PDC patient-derived bladder carcinoma cell line growth inhibition [AhR]
Conditions: for viability, T/C: stronger effect = lower value
Outline: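 Complex tumor spheroids co-cultured with HUVEC and human MSC stroma; AhR antagonists tested in combination with standard-of-care and investigational agents. Top concentration at or near clinical Cmax (else 10 microM), half-log dilutions; growth expressed as percent test/control.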
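Note: exposure lasted 7 days after dosing on day 3 of spheroid growth.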

`COc1cccc2c1C(=O)c1c(O)c3c(c(O)c1C2=O)CC(O)(C(=O)CO)CC3OC1CC(N)C(O)C(C)O1` (centres undefined) was tested. Which viability, T/C (compound 0.0316 µM) did it give?
The viability, T/C was 70.3% and 65.3% and 99.7%.

What about the viability, T/C (compound 0.1 µM) of the same compound?
The viability, T/C was 65.2% and 60.5% and 54.1%.

What about the viability, T/C (compound 0.316 µM) of the same compound?
Its viability, T/C is 60.8% and 58.8% and 62.2%.

And the viability, T/C (compound 1 µM)?
The viability, T/C was 22.4% and 23% and 6.26%.

What about the viability, T/C (compound 3.16 µM) of the same compound?
The viability, T/C was 0.22% and 0.36% and 3.97%.

What about the viability, T/C (compound 10 µM) of the same compound?
The viability, T/C was 0.22% and 0.16% and 3.6%.

What about the IC50 (curve of compound) of the same compound?
Its IC50 is 436 nM and 420 nM and 211 nM.

Which results are given for `COc1ccc([C@@H](O)c2cc(-c3ncnc4cc(N5CCOCC5)ccc34)c(F)cc2Cl)nn1` + Cc1ccccc1N=Nc1ccc(NC(=O)c2ccnn2C)c(C)c1?
IC50 (curve of first compound, second compound 0.1 µM): 3450 nM; IC50 (curve of first compound, second compound 0.316 µM): 2300 nM; IC50 (curve of first compound, second compound 1 µM): 2420 nM; IC50 (curve of first compound, second compound 3.16 µM): 1780 nM; IC50 (curve of first compound, second compound 10 µM): 1690 nM; viability, T/C (second compound 0.1 µM, first compound 0.0316 µM): 97.8%; viability, T/C (second compound 0.1 µM, first compound 0.1 µM): 91.4%; viability, T/C (second compound 0.1 µM, first compound 0.316 µM): 81.3%; viability, T/C (second compound 0.1 µM, first compound 1 µM): 67.8%; viability, T/C (second compound 0.1 µM, first compound 3.16 µM): 51.4%; viability, T/C (second compound 0.1 µM, first compound 10 µM): 33.8%; viability, T/C (second compound 0.316 µM, first compound 0.0316 µM): 83.7%; viability, T/C (second compound 0.316 µM, first compound 0.1 µM): 84.9%; viability, T/C (second compound 0.316 µM, first compound 0.316 µM): 78.3%; viability, T/C (second compound 0.316 µM, first compound 1 µM): 61.4%; viability, T/C (second compound 0.316 µM, first compound 3.16 µM): 46.4%; viability, T/C (second compound 0.316 µM, first compound 10 µM): 33.9%; viability, T/C (second compound 1 µM, first compound 0.0316 µM): 91.1%; viability, T/C (second compound 1 µM, first compound 0.1 µM): 80.7%; viability, T/C (second compound 1 µM, first compound 0.316 µM): 72.8%; viability, T/C (second compound 1 µM, first compound 1 µM): 60.2%; viability, T/C (second compound 1 µM, first compound 3.16 µM): 47.2%; viability, T/C (second compound 1 µM, first compound 10 µM): 32.6%; viability, T/C (second compound 3.16 µM, first compound 0.0316 µM): 76.8%; viability, T/C (second compound 3.16 µM, first compound 0.1 µM): 80%; viability, T/C (second compound 3.16 µM, first compound 0.316 µM): 76.1%; viability, T/C (second compound 3.16 µM, first compound 1 µM): 58.2%; viability, T/C (second compound 3.16 µM, first compound 3.16 µM): 41.9%; viability, T/C (second compound 3.16 µM, first compound 10 µM): 32.9%; viability, T/C (second compound 10 µM, first compound 0.0316 µM): 75.4%; viability, T/C (second compound 10 µM, first compound 0.1 µM): 74.2%; viability, T/C (second compound 10 µM, first compound 0.316 µM): 64.5%; viability, T/C (second compound 10 µM, first compound 1 µM): 57.3%; viability, T/C (second compound 10 µM, first compound 3.16 µM): 42.3%; viability, T/C (second compound 10 µM, first compound 10 µM): 34.2%

Which results are given for `CC1(C)CCC(CN2CCN(c3ccc(C(=O)NS(=O)(=O)c4ccc(NCC5CCOCC5)c([N+](=O)[O-])c4)c(Oc4cnc5[nH]ccc5c4)c3)CC2)=C(c2ccc(Cl)cc2)C1`?
viability, T/C (compound 0.0316 µM): 97.3% and 96.7% and 85.8%; viability, T/C (compound 0.1 µM): 105% and 106% and 130%; viability, T/C (compound 0.316 µM): 101% and 98.7% and 110%; viability, T/C (compound 1 µM): 101% and 98.4% and 92.5%; viability, T/C (compound 3.16 µM): 99.6% and 105% and 72.3%; viability, T/C (compound 10 µM): 30.6% and 64.7% and 33.8%; IC50 (curve of compound): 7230 nM and > 10000 nM and 6070 nM
